Measured values from PubChem BioAssay AID1963441 (Molecular Pharmacology Branch, DTP, NCI, 2024).

Test system: NCI-H1876 complex spheroid growth, % test/control
Test: Anticancer human tumor NCI-H1876 cell line growth inhibition [Asc];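 also: compound exposure lasted 7 days starting three days after seeding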;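 as to viability, T/C: 100% = DMSO vehicle control wells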
Conditions: for IC50: curve of first compound; for viability, T/C: stronger effect = lower value
Outline: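 Complex spheroids combining tumor cells with HUVEC endothelial cells and human MSCs, at 37 degrees C, 5% CO2; agents tested alone or combined, half-log dilutions from at or near clinical Cmax, or 10 microM if Cmax unknown.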

Q: What does the source list for `COc1c(OCCCN2CCOCC2)ccc2c3n(c(=NC(=O)c4cnc(N)nc4)nc12)CCN3` + Cc1c(S(C)(=O)=O)c(-c2cc(F)cc(N3CCN(c4ccc(NS(=O)(=O)c5ccc(NC(CCN6CCC(C(=O)OCCCP(=O)(O)O)CC6)CSc6ccccc6)c(S(=O)(=O)C(F)(F)F)c5)cc4)CC3)c2)c(-c2ccc(Cl)cc2)n1C(C)C?
A: IC50 (second compound 0.0316 µM): 0.243 µM; IC50 (second compound 0.1 µM): 0.225 µM; IC50 (second compound 0.316 µM): 0.207 µM; IC50 (second compound 1 µM): 0.149 µM; IC50 (second compound 3.16 µM): 0.118 µM; IC50 (second compound 10 µM): 0.102 µM; viability, T/C (second compound 0.0316 µM, first compound 0.00316 µM): 94.3%; viability, T/C (second compound 0.0316 µM, first compound 0.01 µM): 88%; viability, T/C (second compound 0.0316 µM, first compound 0.0316 µM): 91.3%; viability, T/C (second compound 0.0316 µM, first compound 0.1 µM): 62.4%; viability, T/C (second compound 0.0316 µM, first compound 0.316 µM): 49.3%; viability, T/C (second compound 0.0316 µM, first compound 1 µM): 35.9%; viability, T/C (second compound 0.1 µM, first compound 0.00316 µM): 93.2%; viability, T/C (second compound 0.1 µM, first compound 0.01 µM): 88%; viability, T/C (second compound 0.1 µM, first compound 0.0316 µM): 88.2%; viability, T/C (second compound 0.1 µM, first compound 0.1 µM): 63.2%; viability, T/C (second compound 0.1 µM, first compound 0.316 µM): 45.4%; viability, T/C (second compound 0.1 µM, first compound 1 µM): 29.6%; viability, T/C (second compound 0.316 µM, first compound 0.00316 µM): 94.3%; viability, T/C (second compound 0.316 µM, first compound 0.01 µM): 94.4%; viability, T/C (second compound 0.316 µM, first compound 0.0316 µM): 87.6%; viability, T/C (second compound 0.316 µM, first compound 0.1 µM): 62.2%; viability, T/C (second compound 0.316 µM, first compound 0.316 µM): 43.2%; viability, T/C (second compound 0.316 µM, first compound 1 µM): 20.1%; viability, T/C (second compound 1 µM, first compound 0.00316 µM): 98.5%; viability, T/C (second compound 1 µM, first compound 0.01 µM): 94.7%; viability, T/C (second compound 1 µM, first compound 0.0316 µM): 82.5%; viability, T/C (second compound 1 µM, first compound 0.1 µM): 57.3%; viability, T/C (second compound 1 µM, first compound 0.316 µM): 35%; viability, T/C (second compound 1 µM, first compound 1 µM): 18.7%; viability, T/C (second compound 3.16 µM, first compound 0.00316 µM): 101%; viability, T/C (second compound 3.16 µM, first compound 0.01 µM): 84.7%; viability, T/C (second compound 3.16 µM, first compound 0.0316 µM): 77.9%; viability, T/C (second compound 3.16 µM, first compound 0.1 µM): 52.8%; viability, T/C (second compound 3.16 µM, first compound 0.316 µM): 29.2%; viability, T/C (second compound 3.16 µM, first compound 1 µM): 10.7%; viability, T/C (second compound 10 µM, first compound 0.00316 µM): 96.7%; viability, T/C (second compound 10 µM, first compound 0.01 µM): 90.3%; viability, T/C (second compound 10 µM, first compound 0.0316 µM): 74.5%; viability, T/C (second compound 10 µM, first compound 0.1 µM): 48.4%; viability, T/C (second compound 10 µM, first compound 0.316 µM): 28.3%; viability, T/C (second compound 10 µM, first compound 1 µM): 8.91%

Q: What does the source list for `NC1CCC(NC2CC2c2ccccc2)CC1` (centres undefined) + CCN1C(C(=O)NC23CCC(C(=O)O)(CC2)CC3)C(c2cccc(Cl)c2F)C2(C(=O)Nc3cc(Cl)ccc32)C12CCCCC2?
A: IC50 (second compound 0.00949 µM): > 0.1 µM; IC50 (second compound 0.03 µM): > 0.1 µM; IC50 (second compound 0.0949 µM): > 0.1 µM; IC50 (second compound 0.3 µM): > 0.1 µM; IC50 (second compound 0.949 µM): > 0.1 µM; IC50 (second compound 3 µM): > 0.1 µM; viability, T/C (second compound 0.00949 µM, first compound 0.000316 µM): 103%; viability, T/C (second compound 0.00949 µM, first compound 0.001 µM): 105%; viability, T/C (second compound 0.00949 µM, first compound 0.00316 µM): 105%; viability, T/C (second compound 0.00949 µM, first compound 0.01 µM): 113%; viability, T/C (second compound 0.00949 µM, first compound 0.0316 µM): 108%; viability, T/C (second compound 0.00949 µM, first compound 0.1 µM): 119%; viability, T/C (second compound 0.03 µM, first compound 0.000316 µM): 112%; viability, T/C (second compound 0.03 µM, first compound 0.001 µM): 107%; viability, T/C (second compound 0.03 µM, first compound 0.00316 µM): 110%; viability, T/C (second compound 0.03 µM, first compound 0.01 µM): 117%; viability, T/C (second compound 0.03 µM, first compound 0.0316 µM): 120%; viability, T/C (second compound 0.03 µM, first compound 0.1 µM): 110%; viability, T/C (second compound 0.0949 µM, first compound 0.000316 µM): 106%; viability, T/C (second compound 0.0949 µM, first compound 0.001 µM): 117%; viability, T/C (second compound 0.0949 µM, first compound 0.00316 µM): 113%; viability, T/C (second compound 0.0949 µM, first compound 0.01 µM): 113%; viability, T/C (second compound 0.0949 µM, first compound 0.0316 µM): 117%; viability, T/C (second compound 0.0949 µM, first compound 0.1 µM): 112%; viability, T/C (second compound 0.3 µM, first compound 0.000316 µM): 117%; viability, T/C (second compound 0.3 µM, first compound 0.001 µM): 116%; viability, T/C (second compound 0.3 µM, first compound 0.00316 µM): 123%; viability, T/C (second compound 0.3 µM, first compound 0.01 µM): 124%; viability, T/C (second compound 0.3 µM, first compound 0.0316 µM): 118%; viability, T/C (second compound 0.3 µM, first compound 0.1 µM): 108%; viability, T/C (second compound 0.949 µM, first compound 0.000316 µM): 118%; viability, T/C (second compound 0.949 µM, first compound 0.001 µM): 121%; viability, T/C (second compound 0.949 µM, first compound 0.00316 µM): 134%; viability, T/C (second compound 0.949 µM, first compound 0.01 µM): 113%; viability, T/C (second compound 0.949 µM, first compound 0.0316 µM): 133%; viability, T/C (second compound 0.949 µM, first compound 0.1 µM): 116%; viability, T/C (second compound 3 µM, first compound 0.000316 µM): 122%; viability, T/C (second compound 3 µM, first compound 0.001 µM): 112%; viability, T/C (second compound 3 µM, first compound 0.00316 µM): 111%; viability, T/C (second compound 3 µM, first compound 0.01 µM): 126%; viability, T/C (second compound 3 µM, first compound 0.0316 µM): 125%; viability, T/C (second compound 3 µM, first compound 0.1 µM): 111%
